According to patent publication US4740233A, “Substituted 1,2,4-triazolo[1,5-a]-pyrimidine-2-sulfonamides and compositions and methods of controlling undesired vegetation and suppressing the nitrification of ammonium nitrogen in soil” (The Dow Chemical Company, priority 1986, dated 1988):

Columns and labels:
johnson grass = experiment: Preemergent control of plant species; type: in vivo, Sorghum halepense; details: Sorghum halepense, pre-emergence, 336 h; 0.25 lb/acre; read-out: percent preemergent control
How it was run: (§1)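 Seeds planted in good agricultural soil beds; active ingredients then applied to the bed surface as aqueous emulsion at listed rates. Beds kept two weeks in greenhouse with watering. Control scored against water-treated beds.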

[1] = test system: nitrification of ammonium nitrogen; experiment: Suppression of nitrification of ammonium nitrogen in soil; details: 27° C.
How it was run: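 Value is % NH4-N remaining after a two-week, 27° C incubation of treated soil held at 1/3 bar tension moisture. Nitrate was measured with an ion-selective electrode after extraction with ammonium sulfate solution and 10 min shaking.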

corn = experiment: Preemergent control of plant species; type: in vivo, Zea mays; details: Zea mays, pre-emergence, 336 h; 0.25 lb/acre; read-out: percent preemergent control
How it was run: as §1

jimsonweed = experiment: Preemergent control of plant species; type: in vivo, Datura stramonium; details: Datura stramonium, pre-emergence, 336 h; 0.25 lb/acre; read-out: percent preemergent control
How it was run: as §1

rice = experiment: Preemergent control of plant species; type: in vivo, Oryza sativa; details: Oryza sativa, pre-emergence, 336 h; 0.25 lb/acre; read-out: percent preemergent control
How it was run: as §1

wheat = experiment: Preemergent control of plant species; type: in vivo, Triticum aestivum; details: Triticum aestivum, pre-emergence, 336 h; 0.25 lb/acre; read-out: percent preemergent control
How it was run: as §1

barnyardgrass = experiment: Preemergent control of plant species; type: in vivo, Echinochloa crusgalli; details: Echinochloa crus-galli, pre-emergence, 336 h; 0.25 lb/acre; read-out: percent preemergent control
How it was run: as §1

cotton = experiment: Preemergent control of plant species; type: in vivo, Gossypium spp.; details: Gossypium hirsutum, pre-emergence, 336 h; 0.25 lb/acre; read-out: percent preemergent control
How it was run: as §1

rape = experiment: Preemergent control of plant species; type: in vivo, Brassica napus; details: Brassica napus, pre-emergence, 336 h; 0.25 lb/acre; read-out: percent preemergent control
How it was run: as §1

pigweed = experiment: Preemergent control of plant species; type: in vivo, Amaranthus spp.; details: Amaranthus retroflexus, pre-emergence, 336 h; 0.25 lb/acre; read-out: percent preemergent control
Description: (§2) The seeds of various species of plants were planted in beds of good agricultural soil in a greenhouse. A number of compositions of the present invention, generally in the nature of an aqueous emulsion, were applied at rates listed in the table so as to deposit a predetermined amount of active ingredients uniformly throughout the surface of the bed. Another seed bed was treated only with water to serve as a control. After treatment the seed beds were maintained for two weeks under greenhouse conditions conducive for good plant growth and watered as necessary. Control refers to the reduction in growth compared to the observed results of the same untreated species.

yellow nutsedge = experiment: Preemergent control of plant species; type: in vivo, Cyperus esculentus; details: Cyperus, pre-emergence, 336 h; 0.25 lb/acre; read-out: percent preemergent control
How it was run: as §1

velvetleaf = experiment: Preemergent control of plant species; type: in vivo, Abutilon theophrasti; details: Abutilon theophrasti, pre-emergence, 336 h; 0.25 lb/acre; read-out: percent preemergent control
How it was run: as §1

yellow foxtail = experiment: Preemergent control of plant species; type: in vivo, Setaria lutescens; details: Setaria, pre-emergence, 336 h; 0.25 lb/acre; read-out: percent preemergent control
How it was run: as §1

sugar beet = experiment: Preemergent control of plant species; type: in vivo, Beta saccharifera; details: Beta vulgaris, pre-emergence, 336 h; 0.25 lb/acre; read-out: percent preemergent control
How it was run: as §1

sorghum = experiment: Preemergent control of plant species; type: in vivo, Sorghum vulgare; details: Sorghum, pre-emergence, 336 h; 0.25 lb/acre; read-out: percent preemergent control
How it was run: as §1

crabgrass = experiment: Preemergent control of plant species; type: in vivo, Digitaria spp.; details: Digitaria sanguinalis, pre-emergence, 336 h; 0.25 lb/acre; read-out: percent preemergent control
Description: as §2

soybean = experiment: Preemergent control of plant species; type: in vivo, Glycine max.; details: Glycine max, pre-emergence, 336 h; 0.25 lb/acre; read-out: percent preemergent control
How it was run: as §1

annual morning glory = experiment: Preemergent control of plant species; type: in vivo, Ipomoea spp.; details: Ipomoea, pre-emergence, 336 h; 0.25 lb/acre; read-out: percent preemergent control
How it was run: as §1

wild oats = experiment: Preemergent control of plant species; type: in vivo; details: Avena fatua, pre-emergence, 336 h; 0.25 lb/acre; read-out: percent preemergent control
How it was run: as §1

| SMILES | pest or weed control at 280.212 g/ha (johnson grass) [%] | % NH4-N Remaining After 2 Weeks Incubation ([1]; 1 ppm) [%] | plant injury at 280.212 g/ha (corn) [%] | pest or weed control at 280.212 g/ha (jimsonweed) [%] | plant injury at 280.212 g/ha (rice) [%] | plant injury at 280.212 g/ha (wheat) [%] | pest or weed control at 280.212 g/ha (barnyardgrass) [%] | plant injury at 280.212 g/ha (cotton) [%] | plant injury at 280.212 g/ha (rape) [%] | pest or weed control at 280.212 g/ha (pigweed) [%] | pest or weed control at 280.212 g/ha (yellow nutsedge) [%] | pest or weed control at 280.212 g/ha (velvetleaf) [%] | pest or weed control at 280.212 g/ha (yellow foxtail) [%] | plant injury at 280.212 g/ha (sugar beet) [%] | plant injury at 280.212 g/ha (sorghum) [%] | pest or weed control at 280.212 g/ha (crabgrass) [%] | plant injury at 280.212 g/ha (soybean) [%] | pest or weed control at 280.212 g/ha (annual morning glory) [%] | pest or weed control at 280.212 g/ha (wild oats) [%] | % NH4-N Remaining After 2 Weeks Incubation ([1]; 0.06 ppm) [%] | other results |
| --- | --- | --- | --- | --- | --- | --- | --- | --- | --- | --- | --- | --- | --- | --- | --- | --- | --- | --- | --- | --- | --- |
| Cc1cc(C)n2nc(S(=O)(=O)Nc3ccccc3C(N)=O)nc2n1 [Compound 37] | 95 | 7 | 95 | 100 | 97 | 0 | 97 | 95 | 95 | 100 | 100 | 95 | 97 | 97 | 95 | 70 | 95 | 90 | 0 |  | % NH4-N Remaining After 2 Weeks Incubation ([1]; 0.01 ppm): 0%; % NH4-N Remaining After 2 Weeks Incubation ([1]; 0.1 ppm): 0%; % NH4-N Remaining After 2 Weeks Incubation ([1]; 10 ppm): 44% |
| Cc1nc2nc(S(=O)(=O)Nc3ccccc3C(F)(F)F)nn2c(C)c1C [Compound 112] | 30 | 65 | 50 | 0 | 25 | 0 | 0 | 80 | 85 | 90 | 90 | 20 | 0 | 99 | 20 | 97 | 0 | 80 | 90 | 31 | % NH4-N Remaining After 2 Weeks Incubation ([1]; 0.25 ppm): 53%; % NH4-N Remaining After 2 Weeks Incubation ([1]; 4 ppm): 72% |
| Cc1cc(C)n2nc(S(=O)(=O)Nc3c(Cl)cc(F)cc3Cl)nc2n1 [Compound 44] | 80 | 71 | 10 | 100 | 70 | 70 | 40 | 85 | 93 | 95 | 90 | 0 | 70 | 97 | 93 | 90 | 80 | 20 | 40 |  | % NH4-N Remaining After 2 Weeks Incubation ([1]; 0.01 ppm): 0%; % NH4-N Remaining After 2 Weeks Incubation ([1]; 0.1 ppm): 42%; % NH4-N Remaining After 2 Weeks Incubation ([1]; 10 ppm): 95% |
| Cc1cc(C)n2nc(S(=O)(=O)Nc3cccc(Cl)c3Cl)nc2n1 [Compound 19] | 0 |  | 0 | 0 | 20 | 0 | 0 | 90 | 95 | 90 | 40 | 70 | 0 | 90 | 0 | 20 | 20 | 50 | 0 |  |  |
| Cc1cccc(Cl)c1NS(=O)(=O)c1nc2nc(C)c(C)c(C)n2n1 [Compound 113] | 50 | 69 | 0 | 0 | 40 | 0 | 20 | 30 | 90 | 100 | 50 | 60 | 50 | 100 | 0 | 90 | 0 | 0 | 0 | 16 | % NH4-N Remaining After 2 Weeks Incubation ([1]; 0.25 ppm): 39%; % NH4-N Remaining After 2 Weeks Incubation ([1]; 4 ppm): 86% |
| COc1cccc(C(F)(F)F)c1NS(=O)(=O)c1nc2nc(C)cc(C)n2n1 [Compound 104] | 100 |  | 100 | 100 | 100 | 100 | 100 | 100 | 100 |  | 100 | 100 | 100 | 100 | 100 | 100 | 100 | 100 | 100 |  |  |
| COCc1cccc(Cl)c1NS(=O)(=O)c1nc2nc(C)cc(C)n2n1 [Compound 91] | 0 | 55 | 30 | 40 | 50 | 20 |  | 100 | 100 | 100 |  | 70 | 100 | 100 | 0 | 40 | 100 |  | 70 | 15 | % NH4-N Remaining After 2 Weeks Incubation ([1]; 0.25 ppm): 46%; % NH4-N Remaining After 2 Weeks Incubation ([1]; 4 ppm): 80% |
